# “And” between values parts separate entries of the source, which are not always exact repeats. Identical values can stand only once. Like-named read-outs stand apart in the source and are kept apart here. Marks after values point to notes of the source that are not given here.
# How the values were obtained:
# Hsp70 = assay: Hsp90 cell based functional assay (Western blot for Hsp70, Hsp90)
# Experimental: Cells were treated with compounds of the invention for 24 h and then lysed in a buffer containing NP-40, orthovanadate, and protease inhibitors. Western blots were performed with antibodies specific to Hsp70, Hsp90, or actin (as control).
# His-tagged-Hsp90 = test system: T1, His-tagged-Hsp90; assay: Hsp90 biochemical assay (AlphaLISA); assay type: binding
# T1 construct: fused on or other part: His tag (captured on Ni2+-coated beads)
# Experimental: This assay employs biotinylated geldanamycin, His-tagged-Hsp90, and Ni^+2 coated beads. This assay is homogenous and miniaturized to 384-well plates. Measurement of binding activity was performed on an Envision reader. […] This assay is the primary assay for evaluating compounds of the invention.
# [1] = Mouse liver microsomal stability; assay type: in vitro ADME; settings: mouse liver microsomes; read-out: microsomal stability T1/2
# Experimental: Metabolic stability of the compounds of the invention was assessed by monitoring their degradation in mouse liver microsomes.
# [2] = Solubility in pH 7.4 buffer; assay type: physicochemical; settings: pH 7.4, aqueous buffer, pH of 7.4
# Experimental: Compound solubility was determined in pH 7.4 buffer. Aqueous solubility of greater than or equal to about 0.5 μM (e.g., greater than or equal to about 1 μM, greater than or equal to about 2 μM, greater than or equal to about 5 μM, greater than or equal to about 10 μM, greater than or equal to about 20 μM, or greater than or equal to about 30 μM) may indicate a compound having acceptable solubility for medical use, e.g., for treatment of a neurodegenerative disorder.
# P-gp (MDR1) = assay: MDR1-MDCK permeability assay; assay type: in vitro ADME; settings: dog, read-out: B→A/A→B asymmetry
# From the text: (§1) Compounds may be assessed in MDR1-MDCK permeability assay or Caco-2 permeability assay to determine their permeability. Apical (A) to basal (B) permeability >3×10^−6 cm/sec and B→A/A→B asymmetry <3 for a compound are considered acceptable predictors of brain penetration, and compounds having such properties are unlikely to be P-glycoprotein (P-gp) substrates. Compound 20 has shown excellent permeability in MDR1-MDCK assay (A-B=28×10^−6 cm/s) with low asymmetry (B→A/A→B asymmetry=0.9).
# [3] = test system: P-glycoprotein (P-gp, MDR1); assay: MDR1-MDCK permeability assay; assay type: in vitro ADME; settings: dog, apical to basal
# From the text: as §1
# [4] = Mouse pharmacokinetics, brain tissue levels (LC-MS/MS); assay type: in vivo; settings: for concentration at 0.5 h: 0.50 h; for half-life: read-out: Half life (t1/2) (converted)
# Experimental: Plasma and brain samples were taken pre-dose and at post dose time points of pre-dose, 15 and 30 minutes, 1, 2, and 8 hours. The pre-dose group was represented by 5 animals, whereas the post-dose groups were represented by 3 animals.
# Bioanalysis of mouse plasma samples for compound 20 was conducted by protein precipitation and LC-MS/MS with compound 22 as the internal standard. The method was based on a ‘generic assay’ and some method development was conducted to tailor that assay to the particular compound and internal standard. The eventual non-GLP assay was first tested by analyzing a bioanalytical run with spiked mouse plasma samples. The qualification run passed by the run acceptance criteria (see below). Bioanalysis was then conducted of plasma sample extracts and of brain sample homogenate extracts, using a calibration and quality control samples spiked in mouse plasma. The assay is described below.
# Evaluation of pharmacokinetic parameters was conducted by calculation from the mean concentration (n=5 pre-dose, n=3 post-dose) at each time point.
# [5] = mouse brain tissue, Table 14, footnote: excluding IRN 12 result
# [6] = mouse brain tissue, Table 15, footnote: including IRN 12 result
# [7] = mouse, brain homogenate, mouse brain homogenate, read-out: Mean Group Concentration, Homogenate
# [8] = mouse, brain, mouse brain tissue, read-out: Mean Group Concentration, Tissue
# [9] = mouse, brain, mouse brain tissue, Table 14, footnote: excluding IRN 12 result
# [10] = mouse, brain, mouse brain tissue, Table 15, footnote: including IRN 12 result
smiles,measurement,setting,value
"Nc1nc(-c2c(Cl)cc(Cl)c3c2CCO3)c2[nH]ccc2n1 [compound 20, 4-(5,7-Dichloro-2,3-dihydrobenzofuran-4-yl)-5H-pyrrolo[3,2-d]pyrimidin-2-amine]",expression of Hsp70,"Hsp70; Western blot, FIG. 5B",increase in the expression of Hsp70
same,expression of Hsp90,"Hsp70; Western blot, FIG. 5B, relative to variation in concentration",expression of Hsp90 remains unchanged
same,EC50,Hsp70; read-out: Hsp 70 agonist activity,> 10000 nM
same,IC50,"His-tagged-Hsp90; AlphaLISA, FIG. 5A, read-out: Hsp90 inhibitory activity IC50",740 ± 100 nM
same,IC50,"His-tagged-Hsp90; IC50 class, AlphaLISA (primary assay), read-out: Hsp90 inhibitory activity",< 1000 nM
same,half-life,[1],26 min
same,solubility,[2],30 µM
same,efflux ratio,P-gp (MDR1),0.9
same,Papp A→B,[3],28 ×10⁻⁶ cm/s
same,"Homogenate concentration, individual animals","[4]; mouse brain homogenate, 15 minutes post dose (B_0.25), 0.00 = below LLOQ 0.988 ng/mL",0.00 ^a ng/mL and 1250 ng/mL
same,"Homogenate concentration, individual animals","[4]; mouse brain homogenate, 30 minutes post dose (C_0.5)",844 ng/mL and 1200 ng/mL
same,"Homogenate concentration, individual animals","[4]; mouse brain homogenate, 1 hour post dose (D_1)",859 ng/mL and 789 ng/mL
same,"Homogenate concentration, individual animals","[4]; mouse brain homogenate, 2 hours post dose (E_2)",385 ng/mL and 294 ng/mL
same,"Homogenate concentration, individual animals","[4]; mouse brain homogenate, 8 hours post dose (F_8)",7.53 ng/mL and 1.83 ng/mL and 1.53 ng/mL
same,"Mean Group Concentration, Tissue","[4]; mouse brain tissue, 0.25 h, excluding IRN 12 result",^a excluding IRN 12 result: 15772 ng/g.
same,"Mean Group Concentration, Tissue","[4]; mouse brain tissue, 0.25 h, incl. IRN 12",10515 ^a ng/g
same,AUC(0-inf),[4]; [5],22900 ng·h/mL
same,Kelimination,[4]; [5],0.769 per hour (h^−1)
same,AUC(0-t),"[4]; mouse brain tissue, Table 14, footnote: excluding IRN 12 result, read-out: AUC(0-8 h)",22900 ng·h/mL
same,Tmax,"[4]; mouse brain tissue, Table 14, footnote: excluding IRN 12 result, read-out: Tmax",15 min
same,Kelimination,[4]; [6],0.789 per hour (h^−1)
same,Tmax,[4]; [6],15 min (h)
same,"Brain concentration, individual animals","[4]; mouse brain, 15 minutes post dose (B_0.25), 0.00 = below LLOQ",0.00 ^a ng/g and 10870 ng/g
same,"Brain concentration, individual animals","[4]; mouse brain, 30 minutes post dose (C_0.5)",7371 ng/g and 10480 ng/g
same,"Brain concentration, individual animals","[4]; mouse brain, 1 hour post dose (D_1)",7486 ng/g and 6846 ng/g
same,"Brain concentration, individual animals","[4]; mouse brain, 2 hours post dose (E_2)",3341 ng/g and 2518 ng/g
same,"Brain concentration, individual animals","[4]; mouse brain, 8 hours post dose (F_8)",63.0 ng/g and 15.0 ng/g and 12.9 ng/g
same,concentration at 0.25 h,"[4]; mouse, brain homogenate, mouse brain homogenate, 0.25 h, incl. IRN 12, read-out: Mean Group Concentration, Homogenate",1180 ng/mL
same,concentration at 15 min,"[4]; mouse, brain homogenate, mouse brain homogenate, 15 minutes post dose (B_0.25), 0.00 = below LLOQ 0.988 ng/mL, read-out: Homogenate concentration, individual animals",2300 ng/mL
same,concentration at 0.5 h,[4]; [7],1150 ng/mL
same,concentration at 30 min,"[4]; mouse, brain homogenate, mouse brain homogenate, 30 minutes post dose (C_0.5), read-out: Homogenate concentration, individual animals",1400 ng/mL
same,concentration at 1 h,"[4]; mouse, brain homogenate, mouse brain homogenate, 1.00 h, read-out: Mean Group Concentration, Homogenate",845 ng/mL
same,concentration at 1 h,"[4]; mouse, brain homogenate, mouse brain homogenate, 1 hour post dose (D_1), read-out: Homogenate concentration, individual animals",888 ng/mL
same,concentration at 2 h,"[4]; mouse, brain homogenate, mouse brain homogenate, 2.00 h, read-out: Mean Group Concentration, Homogenate",363 ng/mL
same,concentration at 2 h,"[4]; mouse, brain homogenate, mouse brain homogenate, 2 hours post dose (E_2), read-out: Homogenate concentration, individual animals",410 ng/mL
same,concentration at 8 h,[4]; [7],3.63 ng/mL
same,concentration at 0.5 h,[4]; [8],9820 ng/g
same,concentration at 1 h,"[4]; mouse, brain, mouse brain tissue, 1.00 h, read-out: Mean Group Concentration, Tissue",7280 ng/g
same,concentration at 2 h,"[4]; mouse, brain, mouse brain tissue, 2.00 h, read-out: Mean Group Concentration, Tissue",3150 ng/g
same,concentration at 8 h,[4]; [8],30 ng/g
same,Cmax,[4]; [9],10500 ng/g
same,half-life,[4]; [9],54 min
same,Cmax,[4]; [10],15800 ng/g
same,half-life,[4]; [10],52.8 min
same,concentration at 15 min,"[4]; mouse, brain, mouse brain, 15 minutes post dose (B_0.25), 0.00 = below LLOQ, read-out: Brain concentration, individual animals",20700 ng/g
same,concentration at 30 min,"[4]; mouse, brain, mouse brain, 30 minutes post dose (C_0.5), read-out: Brain concentration, individual animals",11600 ng/g
same,concentration at 1 h,"[4]; mouse, brain, mouse brain, 1 hour post dose (D_1), read-out: Brain concentration, individual animals",7490 ng/g
same,concentration at 2 h,"[4]; mouse, brain, mouse brain, 2 hours post dose (E_2), read-out: Brain concentration, individual animals",3600 ng/g

# From patent US10336768B2, “Pyrimidine compounds and methods using the same” (Yuma Therapeutics, Inc., priority 2014, dated 2019)
